Measurements published in patent publication US20150223456A1, “PESTICIDAL COMPOUNDS” (SYNGENTA PARTICIPATIONS AG, priority 2011, published 2015).

melting point: 206 to 207 °C
SMILES: O=C(NCC1(c2ccc(Cl)nc2Cl)CC1)c1cccnc1Cl [A.122, 2-Chloro-N-[1-(2,6-dichloro-pyridin-3-yl)-cyclopropylmethyl]nicotinamide]
